Measurements from ChEMBL document CHEMBL3603749, “Ligand efficient tetrahydro-pyrazolopyridines as inhibitors of ERK2 kinase” (Bioorg Med Chem Lett, 2015).

Tested on: Caco-2
Assay: Permeability of the compound from apical to basolateral side in human Caco2 cells
Assay type: ADME, cell-based

`CS(=O)(=O)c1cccc(Cn2ccc(N3CCc4[nH]nc(-c5ccncc5)c4C3)cc2=O)c1` was tested, and the permeability was “impermeable”.

For `O=c1cc(N2CCc3[nH]nc(-c4ccncc4)c3C2)cc[nH]1`, the permeability was “permeable”.
